Source: patent publication US11235033B1, “Materials and methods for the treatment of vascular calcification” (THE FLORIDA INTERNATIONAL UNIVERSITY BOARD OF TRUSTEES, priority 2020, dated 2022)
Entries after “also recorded” stand apart in the source; their conditions may differ. Read-outs that look alike come from different tables or passages of the source. Values belong to the molecule of their own block, whether it stands above or below them.

What was measured:
[1] = system: tissue non-specific alkaline phosphatase (TNAP); test: TNAP activity in EVs released by SMCs; format: cell-based, human; conditions: AG 1478 2.5 μM, FIG. 8B
From the text: To obtain EVs from the mouse aortae, following collagenase digestion and tissue homogenization using a Dounce homogenizer, cells and large extracellular aggregates are removed by centrifugation steps of 1,000×g and 10,000×g, respectively. EVs are isolated from the remaining supernatant by ultracentrifugation at 100,000×g. Western blotting analyses of commonly enriched EV markers determine the efficacy of the isolation procedures. The presence of caveolin-1 and activity of the pro-calcific enzyme TNAP are also assessed in the extracted EVs.
(§1) EVs from the in vitro samples are isolated using previously established procedures, which includes 1,000×g and 10,000×g centrifugations to remove cells and large contaminants and a 100,000×g ultracentrifugation to obtain EVs suspended in conditioned media.

[2] = system: dynamin; conditions: cited from earlier work
[3] = system: CKD mice; test: Aortic calcification in CKD mice fed a high phosphate diet; format: in vivo, mouse; conditions: for calcification in treated CKD mice: CKD diet regimen, AG1478 20 mg/kg or ML290 30 mg/kg oral gavage every 2 days
Protocol: Eight-week old SMMHC-CreER^T2+/Cav1^fl/fl mice receive daily intraperitoneal injections of either peanut oil (vehicle control) or tamoxifen (1 mg/kg) for two weeks. Following the final injection, mice receive an adenine-enriched (0.2%) diet for 6 weeks to induce kidney dysfunction. Elevated phosphate (1.8%) is then added to the diet to induce medial calcification. Using a sensitive near-infrared calcium mineral tracer (OsteoSense 680), significant aortic calcification in mice was observed after 2 weeks of the high phosphate diet (FIG. 1). Vascular calcification continues to increase for up to 6 weeks of the high phosphate diet.
To test the therapeutic efficacy of these small molecules, e.g., ML290 or AG1478, the same CKD diet regimen is used as discussed above. A mouse model designed to test agonists for human RXFP1 is utilized.
Beginning at prescribed time points (FIG. 11), mice are treated with the EGFR inhibitor, AG1478 (20 mg/kg), or ML290 (30 mg/kg) via oral gavage every 2 days. Control mice receive vehicle gavage. The treatments begin either at the initiation of the high phosphate diet (to determine if the treatments prevent mineral formation) or after two weeks of the high phosphate diet (to determine if the treatments can reverse medial calcification).

[4] = system: caveolin-1; test: Immunofluorescence of caveolin-1 localization in SMCs in pro-calcific media; format: cell-based, human; conditions: 1 μM AG1478, SMCs in pro-calcific media; FIG. 13
From the text: (§2) The vasodilatory effects of RXFP1 agonism occurs through interactions within caveolae on endothelial cells. G-protein-coupled receptors (GPCRs), such as RXFP1, use caveolae scaffolding domains to regulate interactions with other proteins and activate downstream signaling. […] RXFP1 agonism may stabilize existing caveolae, leading to the observed decreased caveolin-1 turnover. RXFP1 agonist-induced stabilization of caveolae may prevent the formation of calcifying EVs.
(§3) To determine changes in caveolin-1 associated with the culture conditions and treatments, western blotting and immunofluorescence are used to assay caveolin-1 phosphorylation on tyrosine 14. This site is associated with changes in EGFR activity and caveolae internalization. Immunofluorescence is then used to assess the localization of caveolin-1 within the SMCs for the different culture conditions at these time points. Western blotting is used to quantify caveolin-1 in EVs relative to SMC lysates.

[5] = system: caveolin-1; test: Western blotting of caveolin-1 in SMCs and in EVs under pro-calcific conditions; format: cell-based, human; conditions: AG 1478 2.5 μM; for EV caveolin-1: EVs under pro-calcific conditions, FIG. 8D; for intracellular caveolin-1: SMCs, FIG. 8C
From the text: as §1, §3

[6] = system: primary human coronary artery smooth muscle cells; test: Calcific mineral formation by SMCs cultured in pro-calcific (osteogenic) media in vitro; format: cell-based; conditions: for SMC mineralization in vitro: AG 1478 2.5 μM, FIG. 8A
Protocol: Pro-calcific media, optimized to induce calcification, consists of growth media supplemented with 10 nM dexamethasone, 100 μM L-ascorbic acid, and 10 mM β-glycerolphosphate. All in vitro experiments proceed for 14 days, when release of calcifying EVs from human coronary artery SMCs in pro-calcific media peaks.
[…] Changes in SMC phenotype are assayed in the culture conditions and in response to the small molecule treatments by measuring expression of osteogenic and SMC relevant genes at the time points considered. In vitro mineralization is assessed using alizarin red S staining, extraction, and colorimetric analyses after 21 days in culture.

[7] = molecular target: T1, RXFP1 (Homo sapiens, UniProt Q9HBX9); conditions: cited from earlier work
T1 sequence (Q9HBX9 1-757): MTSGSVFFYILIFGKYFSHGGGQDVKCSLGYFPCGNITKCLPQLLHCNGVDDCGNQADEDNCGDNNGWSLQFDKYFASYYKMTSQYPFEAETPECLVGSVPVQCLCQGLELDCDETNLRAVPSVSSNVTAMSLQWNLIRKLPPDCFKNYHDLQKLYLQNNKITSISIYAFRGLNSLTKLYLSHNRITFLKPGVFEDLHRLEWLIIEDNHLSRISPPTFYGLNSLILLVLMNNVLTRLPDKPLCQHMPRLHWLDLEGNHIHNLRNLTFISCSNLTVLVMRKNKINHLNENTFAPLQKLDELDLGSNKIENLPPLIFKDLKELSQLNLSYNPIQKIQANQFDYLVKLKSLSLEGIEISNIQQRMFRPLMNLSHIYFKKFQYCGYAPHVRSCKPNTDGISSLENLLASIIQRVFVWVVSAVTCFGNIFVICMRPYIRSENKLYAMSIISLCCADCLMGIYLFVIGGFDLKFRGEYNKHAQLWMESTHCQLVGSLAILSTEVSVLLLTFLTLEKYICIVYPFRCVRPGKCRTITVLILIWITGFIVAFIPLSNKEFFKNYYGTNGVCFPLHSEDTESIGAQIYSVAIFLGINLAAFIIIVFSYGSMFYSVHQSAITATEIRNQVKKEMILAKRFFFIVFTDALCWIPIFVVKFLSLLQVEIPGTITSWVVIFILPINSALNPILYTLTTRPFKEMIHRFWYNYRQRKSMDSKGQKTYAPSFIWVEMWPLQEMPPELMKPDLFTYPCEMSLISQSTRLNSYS

[8] = system: PPARGC1A; test: PPARGC1A gene expression in SMCs cultured in pro-calcific media; format: cell-based, human; conditions: FIG. 15
From the text: The modulation of a different GPCR, the serotonin 2B receptor, alters intracellular trafficking to prevent calcification by aortic valve cells. Both 5-HT2B and RXFP1 can modulate vascular tone through interactions with nitric oxide synthase—a known caveolin-1 interactor. RXFP1 may, however, affect caveolin-1 protein stability directly. Peroxisome Proliferator-Activated Receptor γ (PPARγ) activation promotes lysosomal degradation of caveolin-1 in pulmonary artery SMCs. […] Therefore, thus result indicates the potential mechanism for the observed anti-calcific effects of ML290.

[9] = molecular target: T2, rodent receptor (Mus musculus, UniProt Q6R6I7); conditions: cited from earlier work
T2 sequence (Q6R6I7 1-758): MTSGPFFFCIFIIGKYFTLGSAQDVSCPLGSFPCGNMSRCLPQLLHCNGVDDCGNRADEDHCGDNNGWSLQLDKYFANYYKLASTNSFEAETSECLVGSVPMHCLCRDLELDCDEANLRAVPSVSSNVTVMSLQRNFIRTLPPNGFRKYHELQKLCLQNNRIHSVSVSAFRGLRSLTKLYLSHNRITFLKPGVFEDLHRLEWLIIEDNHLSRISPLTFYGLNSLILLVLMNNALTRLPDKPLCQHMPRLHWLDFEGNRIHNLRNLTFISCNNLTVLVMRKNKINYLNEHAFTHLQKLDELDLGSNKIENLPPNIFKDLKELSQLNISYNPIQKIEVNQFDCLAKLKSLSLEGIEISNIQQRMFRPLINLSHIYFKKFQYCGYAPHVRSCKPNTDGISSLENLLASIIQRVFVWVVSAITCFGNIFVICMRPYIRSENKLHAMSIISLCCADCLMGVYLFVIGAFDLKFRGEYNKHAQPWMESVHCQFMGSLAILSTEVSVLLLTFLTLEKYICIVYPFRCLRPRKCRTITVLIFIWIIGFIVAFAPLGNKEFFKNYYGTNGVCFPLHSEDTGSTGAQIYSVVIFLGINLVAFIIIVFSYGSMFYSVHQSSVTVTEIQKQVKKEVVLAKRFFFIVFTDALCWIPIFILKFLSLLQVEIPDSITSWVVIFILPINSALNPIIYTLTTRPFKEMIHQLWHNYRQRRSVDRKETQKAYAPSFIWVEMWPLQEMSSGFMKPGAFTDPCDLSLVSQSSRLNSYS

[10] = system: caveolin-1; test: Caveolin-1 gene expression in pro-calcific SMC culture; format: cell-based, human; conditions: SMCs, pro-calcific conditions, 24 h; FIG. 14
From the text: as §2

[11] = system: THP1 cells; conditions: cited from earlier work
[12] = Adverse events in 25-week atherosclerotic mouse study; format: in vivo; conditions: mice, oral gavage, preliminary 25-week atherosclerotic study
[13] = molecular target: T1, RXFP1; conditions: cited from earlier work; remark: listed apart in the source
[14] = system: atherogenic Apoe−/− mice; test: Calcification (OsteoSense fluorescence) in atherogenic Apoe-/- mice; format: in vivo, mouse; conditions: oral gavage 30 mg/kg; for OsteoSense fluorescence (mineral) vs vehicle treated controls: after 25 weeks of atherogenic diet
From the text: A chow control is shown for comparison (first aorta). C) Quantification of mice treated with ML290 at the initiation of the atherogenic diet. […] D) Quantification of OsteoSense signal in mice treated at 15 weeks of atherogenic diet, indicating potential of treatment to reverse existing remodeling. #p<0.0001.
Relaxin Family Peptide Receptor 1 (RXFP1) agonism induces vasodilation through a mechanism that may involve interactions with endothelial nitric oxide synthase within caveolae. The relaxin peptide, activating RXFP1, has therapeutic potential in treating fibrosis and vasculopathies.

[15] = Pharmacokinetics study of ML290 via oral administration in hRXFP1/hRXFP1 mice; format: in vivo; conditions: mouse, 30 mg/kg oral
[16] = system: hypertensive rats; conditions: chronic treatment; cited from earlier work
[17] = in vivo; cited from earlier work

EV TNAP activity [1]: reduces activity
EV TNAP activity ([1]; listed as AG 1478): reduces EV TNAP activity
Molecule: COc1cc2ncnc(Nc3cccc(Cl)c3)c2cc1OC [AG1478]
dynamin activity [2]: reduces dynamin activity
calcification in treated CKD mice [3]: Diminished calcification
caveolin-1 plasma membrane (peripheral) localization [4]: maintained the peripheral localization of caveolin-1; also recorded: preserves caveolin-1 (red) plasma membrane localization
EV caveolin-1 [5]: reduces caveolin-1 released in EVs; also recorded: decreases EV caveolin-1
EV caveolin-1 ([5]; listed as AG 1478): reduces EV caveolin-1
intracellular caveolin-1 [5]: does not change intracellular caveolin-1; also recorded: without affecting intracellular caveolin-1 levels
intracellular caveolin-1 ([5]; listed as AG 1478): does not affect intracellular caveolin-1
SMC mineralization in vitro [6]: prevents calcific mineral formation
SMC mineralization in vitro ([6]; listed as AG 1478): prevents SMC mineralization

Molecule: CC(C)Oc1ccccc1C(=O)Nc1ccccc1C(=O)Nc1cccc(S(=O)(=O)C(F)(F)F)c1 [ML290]
selectivity towards RXFP1 over RXFP2 receptors [7]: > 100 fold
PPARGC1A gene expression [8]: increases PPARGC1A; also recorded: increased expression of PPARGC1A
activation of rodent receptor [9]: does not activate rodent receptor
calcification in treated CKD mice [3]: Diminished calcification
aortic calcification ([3]; CKD mice, 30 mg/kg oral gavage from initiation of high phosphate diet, 2 weeks, FIG. 12, 30 mg/kg): significant prevented aortic calcification; also recorded: significantly prevents aortic calcification
caveolin-1 gene expression [10]: decreases caveolin-1 gene expression; also recorded: reduces caveolin-1 expression
VEGF gene expression [11]: increase
cAMP levels [11]: increase
mineral formation by vascular smooth muscle cells in vitro ([6]; ML290 5 μM, FIG. 9A): significantly reduces mineral formation
anti-calcification effect on human SMCs in vitro ([6]; primary human coronary artery smooth muscle cells cultured in osteogenic stimuli): mitigates calcification; also recorded: profound anti-calcification effects
adverse events [12]: No adverse events
agonism of human RXFP1 [13]: potent and efficacious non-peptide agonist; also recorded: specific agonist for human RXFP1
calcification in vivo ([14]; Apoe−/− mice, FIG. 9B, 30 mg/kg): mitigates calcification; also recorded: reduces calcification in vivo
OsteoSense fluorescence (mineral) vs vehicle treated controls ([14]; treated after 15 weeks of atherogenic diet): Lower OsteoSense fluorescence
OsteoSense fluorescence (mineral) vs vehicle treated controls ([14]; treated at the beginning of the atherogenic diet): Lower OsteoSense fluorescence
half-life ([15]; aorta, read-out: t½ in aorta (converted)): 8 h
half-life ([15]; serum, read-out: t½ in serum (converted)): 11 h

Molecule: relaxin
arterial compliance [16]: improved arterial compliance
safety and tolerability [17]: safe and well-tolerated
